The assay deals with T1, Zcchc11 enzyme (Homo sapiens, UniProt Q5TAX3).
T1 construct: made in house; host or cells: HEK293 cells (Zcchc11); E. coli Rosetta II (LIN28A)
T1 sequence (Q5TAX3 212-1420): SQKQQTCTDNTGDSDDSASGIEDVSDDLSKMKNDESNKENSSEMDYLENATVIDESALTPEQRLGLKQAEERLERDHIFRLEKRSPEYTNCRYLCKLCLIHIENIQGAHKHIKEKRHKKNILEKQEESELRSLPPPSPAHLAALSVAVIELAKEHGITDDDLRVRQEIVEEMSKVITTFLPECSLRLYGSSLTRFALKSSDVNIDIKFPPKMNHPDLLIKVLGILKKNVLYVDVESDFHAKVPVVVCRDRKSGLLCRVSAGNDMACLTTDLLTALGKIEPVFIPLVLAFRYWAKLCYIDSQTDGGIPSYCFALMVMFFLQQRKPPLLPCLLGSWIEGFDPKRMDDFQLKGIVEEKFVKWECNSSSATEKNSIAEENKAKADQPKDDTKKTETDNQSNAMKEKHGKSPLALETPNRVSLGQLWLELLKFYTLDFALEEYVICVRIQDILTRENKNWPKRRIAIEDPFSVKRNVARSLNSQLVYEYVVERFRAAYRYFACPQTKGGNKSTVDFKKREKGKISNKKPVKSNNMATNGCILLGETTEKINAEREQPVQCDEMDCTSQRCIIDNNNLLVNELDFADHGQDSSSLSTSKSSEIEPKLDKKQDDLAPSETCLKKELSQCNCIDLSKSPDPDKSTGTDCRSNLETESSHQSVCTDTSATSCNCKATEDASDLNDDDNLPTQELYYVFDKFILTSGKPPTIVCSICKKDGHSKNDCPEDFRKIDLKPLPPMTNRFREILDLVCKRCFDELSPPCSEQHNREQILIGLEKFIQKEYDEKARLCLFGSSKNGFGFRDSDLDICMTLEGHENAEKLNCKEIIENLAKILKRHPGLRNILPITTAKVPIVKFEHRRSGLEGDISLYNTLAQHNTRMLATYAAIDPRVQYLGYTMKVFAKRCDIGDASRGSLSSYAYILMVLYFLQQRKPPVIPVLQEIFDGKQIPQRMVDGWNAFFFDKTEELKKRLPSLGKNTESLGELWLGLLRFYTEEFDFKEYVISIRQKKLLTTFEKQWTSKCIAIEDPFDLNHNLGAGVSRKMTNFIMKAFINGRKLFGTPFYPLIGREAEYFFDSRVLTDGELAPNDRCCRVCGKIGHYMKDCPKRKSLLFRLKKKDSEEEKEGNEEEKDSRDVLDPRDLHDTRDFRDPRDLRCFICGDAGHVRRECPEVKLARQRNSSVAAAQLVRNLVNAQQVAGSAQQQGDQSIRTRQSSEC
Nature of the assay: TUTase assay (Zcchc11 assay, Lin28a-dependent polyuridylation of pre-let-7). In kind it is biochemical. The note with it: Lin28a-dependent Zcchc11 (Z11) TUTase activity; read-out: Potency Lin28a-dep Z11 IC50. An outline of the steps:
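Potency is measured as inhibition of LIN28A-driven U-tail addition to 2 nM pre-let-7 by 0.2 nM HEK293-derived Zcchc11 fragment with 5 uM UTP at room temperature. Tail growth appears as fluorescein quenching by an annealing rhodamine-A20 probe.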

Some results are limits rather than exact numbers.

Regarding `CN(C)C1CN(c2ccc(-n3cc(C(=O)O)c(=O)c4cc(Cl)c(N5CC6(CCC6)CC5COc5ncccc5Cl)cc43)cn2)C1` (centres unmarked) [Compound 226, 6-Chloro-7-(7-(((3-chloropyridin-2-yl)oxy)methyl)-6-azaspiro [3.4]octan-6-yl)-1-(6-(3-(dimethyl-amino)azetidin-1-yl)pyridin-3-yl)-4-oxo-1,4-dihydro-quinoline-3-carboxylic acid compound with formic acid (1:1)], the IC50 is no more than 1000 nM.

With `COc1ccc(Cl)c(OCC2N(c3cc4c(cc3Cl)c(=O)c(C(=O)O)cn4-c3cnnc(N)c3)CCC2(C)C)n1` (centres unmarked) [Compound 228, 1-(6-Amino-pyridazin-4-yl)-6-chloro-7-(2-(((3-chloro-6-methoxy-pyridin-2-yl)oxy)methyl)-3,3-dimethyl-pyrrolidin-1-yl)-4-oxo-1,4-dihydro-quinoline-3-carboxylic acid], the IC50 was no more than 1000 nM.

Consider `COc1ccc(Cl)c(OCC2N(c3cc4c(cc3Cl)c(=O)c(C(=O)O)cn4-c3cc(N)cnn3)CCC2(C)C)n1` (centres unmarked) [Compound 229, 1-(5-Amino-pyridazin-3-yl)-6-chloro-7-(2-(((3-chloro-6-methoxy-pyridin-2-yl)oxy)methyl)-3,3-dimethyl-pyrrolidin-1-yl)-4-oxo-1,4-dihydro-quinoline-3-carboxylic acid], for which the half-maximal inhibitory concentration (IC50) was no more than 1000 nM.

Consider `CO/N=C1/CCN(c2cc3c(cc2Cl)c(=O)c(C(=O)O)cn3-c2ccc(N3CC(N(C)C)C3)nc2)C1COc1nc(OC)ccc1Cl` (centres unmarked) [Compound 232, (Z)-6-chloro-7-(2-(((3-chloro-6-methoxy-pyridin-2-yl)oxy)methyl)-3-(methoxyimino)pyrrolidin-1-yl)-1-(6-(3-(dimethyl-amino)azetidin-1-yl)pyridin-3-yl)-4-oxo-1,4-dihydro-quinoline-3-carboxylic acid], for which the concentration for half-maximal inhibition (IC50) is no more than 1000 nM. In the case of `CO/N=C1\CCN(c2cc3c(cc2Cl)c(=O)c(C(=O)O)cn3-c2ccc(N3CC(N(C)C)C3)nc2)C1COc1nc(OC)ccc1Cl` (centres unmarked) [Compound 233, (E)-6-chloro-7-(2-(((3-chloro-6-methoxy-pyridin-2-yl)oxy)methyl)-3-(methoxyimino)pyrrolidin-1-yl)-1-(6-(3-(dimethyl-amino)azetidin-1-yl)pyridin-3-yl)-4-oxo-1,4-dihydro-quinoline-3-carboxylic acid] it was no more than 1000 nM; in that of `O=C(O)c1cn(-c2ccc3c(c2)CNC3)c2cc(N3CCC[C@@H]3COc3ncccc3Cl)c(Cl)cc2c1=O` [Compound 236, 6-chloro-7-[(2R)-2-[[(3-chloropyridin-2-yl)oxy]methyl]pyrrolidin-1-yl]-1-(2,3-dihydro-1H-isoindol-5-yl)-4-oxoquinoline-3-carboxylic acid], no more than 1000 nM.

In the case of `CC(=O)N1Cc2ccc(-n3cc(C(=O)O)c(=O)c4cc(Cl)c(N5CCC[C@@H]5COc5ncccc5Cl)cc43)cc2C1` [Compound 237, 1-(2-acetyl-1,3-dihydro-isoindol-5-yl)-6-chloro-7-[(2R)-2-[[(3-chloropyridin-2-yl)oxy]methyl]pyrrolidin-1-yl]-4-oxoquinoline-3-carboxylic acid], the IC50 was no more than 1000 nM. Then `O=C(O)c1cn(-c2cnc(OCCO)cn2)c2cc(N3CCC[C@@H]3COc3ncccc3Cl)c(Cl)cc2c1=O` [Compound 238, 6-chloro-7-[(2R)-2-[[(3-chloropyridin-2-yl)oxy]methyl]pyrrolidin-1-yl]-1-[5-(2-hydroxy-ethoxy)pyrazin-2-yl]-4-oxoquinoline-3-carboxylic acid], with no more than 1000 nM; and `O=C(O)c1cn(-c2cnn(C3CN(CC(F)(F)F)C3)c2)c2cc(N3CCC[C@@H]3COc3ncccc3Cl)c(Cl)cc2c1=O` [Compound 239, 6-chloro-7-[(2R)-2-[[(3-chloropyridin-2-yl)oxy]methyl]pyrrolidin-1-yl]-4-oxo-1-[1-[1-(2,2,2-trifluoro-ethyl)azetidin-3-yl]pyrazol-4-yl]quinoline-3-carboxylic acid], with no more than 1000 nM; and `O=C(O)c1cn(-c2cnccn2)c2cc(N3CCC[C@@H]3COc3ncccc3Cl)c(F)cc2c1=O` [Compound 240, 7-[(2R)-2-[[(3-chloropyridin-2-yl)oxy]methyl]pyrrolidin-1-yl]-6-fluoro-4-oxo-1-(pyrazin-2-yl)quinoline-3-carboxylic acid], with no more than 1000 nM. In the case of `CCN1CC(n2cc(-n3cc(C(=O)O)c(=O)c4cc(Cl)c(N5CCC[C@@H]5COc5ncccc5Cl)cc43)cn2)C1` [Compound 241] it was no more than 1000 nM. Then `COCCn1cc(-n2cc(C(=O)O)c(=O)c3cc(C#N)c(N4CCC[C@@H]4COc4ncccc4Cl)cc32)cn1` [Compound 242, 7-[(2R)-2-[[(3-chloropyridin-2-yl)oxy]methyl]pyrrolidin-1-yl]-6-cyano-1-[1-(2-methoxyethyl)pyrazol-4-yl]-4-oxoquinoline-3-carboxylic acid], with no more than 1000 nM; and `O=C(O)c1cn(-c2cnn(C3CNC3)c2)c2cc(N3CCC[C@@H]3COc3ncccc3Cl)c(Cl)cc2c1=O` [Compound 243, 1-[1-(azetidin-3-yl)pyrazol-4-yl]-6-chloro-7-[(2R)-2-[[(3-chloropyridin-2-yl)oxy]methyl]pyrrolidin-1-yl]-4-oxoquinoline-3-carboxylic acid], with no more than 1000 nM. Turning to `O=C(O)c1cn(-c2cnn(C3CN(CCF)C3)c2)c2cc(N3CCC[C@@H]3COc3ncccc3Cl)c(Cl)cc2c1=O` [Compound 244, 6-chloro-7-[(2R)-2-[[(3-chloropyridin-2-yl)oxy]methyl]pyrrolidin-1-yl]-1-[1-[1-(2-fluoroethyl)azetidin-3-yl]pyrazol-4-yl]-4-oxoquinoline-3-carboxylic acid], the IC50 was no more than 1000 nM.

For the compound `O=C(O)c1cn(-c2cnn(C3CNC3)c2)c2cc(N3CCC[C@@H]3COc3ncccc3F)c(Cl)cc2c1=O` [Compound 246, 1-[1-(azetidin-3-yl)pyrazol-4-yl]-6-chloro-7-[(2R)-2-[[(3-fluoropyridin-2-yl)oxy]methyl]pyrrolidin-1-yl]-4-oxoquinoline-3-carboxylic acid], the IC50 is no more than 1000 nM.

Turning to `Cc1cccnc1OC[C@H]1CCCN1c1cc2c(cc1C#N)c(=O)c(C(=O)O)cn2-c1cnn(C)c1` [Compound 248, 6-cyano-1-(1-methylpyrazol-4-yl)-7-[(2R)-2-[[(3-methylpyridin-2-yl)oxy]methyl]pyrrolidin-1-yl]-4-oxoquinoline-3-carboxylic acid], the IC50 was no more than 1000 nM. In the case of `CN(C)C1CN(c2ccc(-n3cc(C(=O)O)c(=O)c4ccc(N5C(=O)CC[C@@H]5COc5ncccc5Cl)cc43)cn2)C1` [Compound 249, (R)-7-(2-(((3-chloropyridin-2-yl)oxy)methyl)-5-oxopyrrolidin-1-yl)-1-(6-(3-(dimethyl-amino)azetidin-1-yl)pyridin-3-yl)-4-oxo-1,4-dihydro-quinoline-3-carboxylic acid] it was 1000 to 10000 nM. Then `CN(C)C1CN(c2ccc(-n3cc(C(=O)O)c(=O)c4cc(C#N)c(N5CCC[C@@H]5COc5ncccc5Cl)nc43)cn2)C1` [Compound 250, 7-[(2R)-2-[[(3-chloropyridin-2-yl)oxy]methyl]pyrrolidin-1-yl]-6-cyano-1-[6-[3-(dimethyl-amino)azetidin-1-yl]pyridin-3-yl]-4-oxo-1,8-naphthyridine-3-carboxylic acid], with no more than 1000 nM; and `Cn1cc(Cn2cc(C(=O)O)c(=O)c3cc(Cl)c(N4CCC[C@@H]4COc4ncccc4Cl)cc32)cn1` [Compound 252, 6-chloro-7-[(2R)-2-[[(3-chloropyridin-2-yl)oxy]methyl]pyrrolidin-1-yl]-1-[(1-methyl-pyrazol-4-yl)methyl]-4-oxoquinoline-3-carboxylic acid], with no more than 1000 nM.

Regarding `CN(C)C1CN(c2cc(Cl)c(-n3cc(C(=O)O)c(=O)c4cc(Cl)c(N5CCC[C@@H]5COc5ncccc5Cl)cc43)cn2)C1` [Compound 253, 6-chloro-1-[4-chloro-6-[3-(dimethyl-amino)azetidin-1-yl]pyridin-3-yl]-7-[(2R)-2-[[(3-chloropyridin-2-yl)oxy]methyl]pyrrolidin-1-yl]-4-oxoquinoline-3-carboxylic acid], the IC50 was no more than 1000 nM.

These data come from US12662491B2 (Redona Therapeutics, Inc., priority 2020, dated 2026).
